Data: BigSolDB 2.1

Nc1ccc([N+](=O)[O-])cc1[N+](=O)[O-]
solubility (mole fraction)
Conditions | in isopropanol | in methanol | in n-butanol | in n-propanol | in toluene
278.15 K | – | 0.00126 | 0.00144 | 0.00103 | 0.00033
280.65 K | – | 0.00138 | 0.00154 | 0.00116 | 0.000383
283.15 K | – | 0.00156 | 0.00172 | 0.00131 | 0.000443
285.65 K | – | 0.00173 | 0.00193 | 0.00146 | 0.000511
288.15 K | – | 0.00192 | 0.00216 | 0.00163 | 0.000573
290.65 K | – | 0.00212 | 0.00243 | 0.0018 | 0.000642
293.15 K | – | 0.00232 | 0.00271 | 0.00198 | 0.000724
295.65 K | – | 0.00253 | 0.00299 | 0.00217 | 0.000814
298.15 K | 0.00227 | 0.00276 | 0.00329 | 0.00238 | 0.000917
300.65 K | 0.00253 | 0.00301 | 0.00365 | 0.00262 | 0.00102
303.15 K | 0.00281 | 0.00327 | 0.00406 | 0.00287 | 0.00114
305.65 K | 0.00313 | 0.00356 | 0.00447 | 0.00314 | 0.00128
308.15 K | 0.00346 | 0.00386 | 0.00494 | 0.00346 | 0.00142
310.65 K | 0.00383 | 0.00421 | 0.00543 | 0.0038 | 0.00158
313.15 K | 0.00426 | 0.00456 | 0.00589 | 0.00413 | 0.00175
315.65 K | 0.00469 | 0.00493 | 0.00646 | 0.00452 | 0.00193
318.15 K | 0.00522 | 0.00537 | 0.00712 | 0.00493 | 0.00217
